Source: US8030498B2, “Benzoylpyrazole compounds and herbicides containing them” (Ishihara Sangyo Kaisha, Ltd., priority 2005, dated 2011)

Tests used:
[1] = tested on: rice (Oryza sativa L.); test: Test Example 1: foliar treatment, growth inhibition rate, rice; assay type: in vivo; settings: 31 g/ha active ingredient, visually observed 17th to 23rd day after application
Text: (§1) Upland field soil was put into a 1/170,000 hectare pot, and seeds of various plants were sown. When the respective plants reached predetermined leaf stage ((1) barnyardgrass (Echinochloa crus-galli L.); 0.8 to 2.5 leaf stage, (2) crabgrass (Digitaria sanguinalis L.): 0.5 to 3.0 leaf stage, (3) greenfoxtail (Setaria viridis L.): 1.0 to 3.0 leaf stage, (4) redroot pigweed (Amaranthus retroflexus L.): cotyledon stage to 2.0 leaf stage, (5) prickly sida (Sida spinosa L.): cotyledon stage to 1.1 leaf stage, (6) velvetleaf (Abutilon theophrasti MEDIC.): cotyledon stage to 1.5 leaf stage, (7) rice (Oryza sativa L.): 1.0 to 2.5 leaf stage, (8) wheat (Triticum spp.): 1.7 to 3.4 leaf stage, (9) corn (Zea mays L.): 2.0 to 3.5 leaf stage, and (10) soybean (Glycine max Merr.): primary leaf stage to 0.3 leaf stage), wettable powders or emulsifiable concentrates of the compounds of the present invention prepared in accordance with a conventional preparation method, were weighed so that the active ingredients became the prescribed amounts, and diluted with water in an amount corresponding to 500 liter per 1 hectare. 0.1 vol % of an agricultural spreader was further added to the respective diluted liquids, followed by foliar treatment with a small sprayer.
(§2) On the 17th to 23rd day after application, the state of growth of the respective plants was visually observed, and the herbicidal effect was evaluated in accordance with a growth inhibition rate (%) of 0 (equivalent to the non-treated area) to 100% (complete kill).

[2] = tested on: greenfoxtail (Setaria viridis L.); test: Test Example 1: foliar treatment, growth inhibition rate, greenfoxtail; assay type: in vivo; settings: 31 g/ha active ingredient, visually observed 17th to 23rd day after application
Text: as §1, §2

[3] = tested on: prickly sida (Sida spinosa L.); test: Test Example 1: foliar treatment, growth inhibition rate, prickly sida; assay type: in vivo; settings: 31 g/ha active ingredient, visually observed 17th to 23rd day after application
Text: as §1, §2

[4] = tested on: corn; test: Test Example 2: soil application on the day after sowing, growth inhibition rate, corn; assay type: in vivo, Zea mays L.; settings: 250 g/ha active ingredient, observed on 19th to 24th day
Text: (§3) Upland field soil was put into a 1/170,000 hectare pot, and seeds of various plants (barnyardgrass, crabgrass, greenfoxtail, redroot pigweed, prickly sida, velvetleaf, rice, wheat, corn and soybean) were sown. On the day after sowing, wettable powders or emulsifiable concentrates of the compounds of the present invention prepared in accordance with a conventional preparation method, were weighed so that the active ingredients became the prescribed amounts, and diluted with water in an amount corresponding to 500 liter per 1 hectare, followed by soil application with a small sprayer. On the 19th to 24th day after the application, the state of growth of the respective plants was visually observed, and the herbicidal effect was evaluated in accordance with a growth inhibition rate (%) of from 0 (equivalent to the non-treated area) to 100% (complete kill).

[5] = tested on: crabgrass (Digitaria sanguinalis L.); test: Test Example 1: foliar treatment, growth inhibition rate, crabgrass; assay type: in vivo; settings: 31 g/ha active ingredient, visually observed 17th to 23rd day after application
Text: as §1, §2

[6] = tested on: soybean (Glycine max Merr.); test: Test Example 1: foliar treatment, growth inhibition rate, soybean; assay type: in vivo; settings: 31 g/ha active ingredient, visually observed 17th to 23rd day after application
Text: as §1, §2

[7] = tested on: corn (Zea mays L.); test: Test Example 1: foliar treatment, growth inhibition rate, corn; assay type: in vivo; settings: 31 g/ha active ingredient, visually observed 17th to 23rd day after application
Text: as §1, §2

[8] = tested on: crabgrass; test: Test Example 2: soil application on the day after sowing, growth inhibition rate, crabgrass; assay type: in vivo, Digitaria sanguinalis L.; settings: 250 g/ha active ingredient, observed on 19th to 24th day
Text: as §3

[9] = tested on: wheat (Triticum spp.); test: Test Example 1: foliar treatment, growth inhibition rate, wheat; assay type: in vivo; settings: 31 g/ha active ingredient, visually observed 17th to 23rd day after application
Text: as §1, §2

[10] = tested on: redroot pigweed (Amaranthus retroflexus L.); test: Test Example 1: foliar treatment, growth inhibition rate, redroot pigweed; assay type: in vivo; settings: 31 g/ha active ingredient, visually observed 17th to 23rd day after application
Text: as §1, §2

[11] = tested on: velvetleaf; test: Test Example 2: soil application on the day after sowing, growth inhibition rate, velvetleaf; assay type: in vivo, Abutilon theophrasti MEDIC.; settings: 250 g/ha active ingredient, observed on 19th to 24th day
Text: as §3

[12] = tested on: velvetleaf (Abutilon theophrasti MEDIC.); test: Test Example 1: foliar treatment, growth inhibition rate, velvetleaf; assay type: in vivo; settings: 31 g/ha active ingredient, visually observed 17th to 23rd day after application
Text: as §1, §2

[13] = tested on: redroot pigweed; test: Test Example 2: soil application on the day after sowing, growth inhibition rate, redroot pigweed; assay type: in vivo, Amaranthus retroflexus L.; settings: 250 g/ha active ingredient, observed on 19th to 24th day
Text: as §3

[14] = tested on: barnyardgrass (Echinochloa crus-galli L.); test: Test Example 1: foliar treatment, growth inhibition rate, barnyardgrass; assay type: in vivo; settings: 31 g/ha active ingredient, visually observed 17th to 23rd day after application
Text: as §1, §2

[15] = tested on: prickly sida; test: Test Example 2: soil application on the day after sowing, growth inhibition rate, prickly sida; assay type: in vivo, Sida spinosa L.; settings: 250 g/ha active ingredient, observed on 19th to 24th day
Text: as §3

[16] = tested on: soybean; test: Test Example 2: soil application on the day after sowing, growth inhibition rate, soybean; assay type: in vivo, Glycine max Merr.; settings: 250 g/ha active ingredient, observed on 19th to 24th day
Text: as §3

[17] = tested on: barnyardgrass; test: Test Example 2: soil application on the day after sowing, growth inhibition rate, barnyardgrass; assay type: in vivo, Echinochloa crus-galli L.; settings: 250 g/ha active ingredient, observed on 19th to 24th day
Text: as §3

[18] = tested on: greenfoxtail; test: Test Example 2: soil application on the day after sowing, growth inhibition rate, greenfoxtail; assay type: in vivo, Setaria viridis L.; settings: 250 g/ha active ingredient, observed on 19th to 24th day
Text: as §3

[19] = tested on: rice; test: Test Example 2: soil application on the day after sowing, growth inhibition rate, rice; assay type: in vivo, Oryza sativa L.; settings: 250 g/ha active ingredient, observed on 19th to 24th day
Text: as §3

COCc1c(S(C)(=O)=O)ccc(C(=O)c2cnn(C)c2OC(=O)SC)c1Cl [compound 74]
Growth inhibition rate (%) Rice [1]: 95% | Growth inhibition rate (%) Greenfoxtail [2]: 80% | Growth inhibition rate (%) Prickly sida [3]: 70% | Growth inhibition rate (%) Corn [4]: 0% | Growth inhibition rate (%) Crabgrass [5]: 98% | Growth inhibition rate (%) Soybean [6]: 98% | Growth inhibition rate (%) Corn [7]: 40% | Growth inhibition rate (%) Crabgrass [8]: 90% | Growth inhibition rate (%) Wheat [9]: 20% | Growth inhibition rate (%) redroot pigweed [10]: 100% | Growth inhibition rate (%) Velvetleaf [11]: 70% | Growth inhibition rate (%) Velvetleaf [12]: 100% | Growth inhibition rate (%) redroot pigweed [13]: 95% | Growth inhibition rate (%) Barnyardgrass [14]: 100%

CCn1ncc(C(=O)c2ccc(S(C)(=O)=O)c(OCCOC)c2C)c1OC(=O)SC [compound 234]
Growth inhibition rate (%) Rice [1]: 90% | Growth inhibition rate (%) Greenfoxtail [2]: 100% | Growth inhibition rate (%) Prickly sida [15]: 20% | Growth inhibition rate (%) Prickly sida [3]: 50% | Growth inhibition rate (%) Corn [4]: 0% | Growth inhibition rate (%) Soybean [16]: 0% | Growth inhibition rate (%) Barnyardgrass [17]: 100% | Growth inhibition rate (%) Crabgrass [5]: 100% | Growth inhibition rate (%) Soybean [6]: 100% | Growth inhibition rate (%) Greenfoxtail [18]: 100% | Growth inhibition rate (%) Corn [7]: 0% | Growth inhibition rate (%) Rice [19]: 100% | Growth inhibition rate (%) Crabgrass [8]: 100% | Growth inhibition rate (%) Wheat [9]: 0% | Growth inhibition rate (%) redroot pigweed [10]: 100% | Growth inhibition rate (%) Velvetleaf [11]: 70% | Growth inhibition rate (%) Velvetleaf [12]: 100% | Growth inhibition rate (%) redroot pigweed [13]: 100% | Growth inhibition rate (%) Barnyardgrass [14]: 100%

CCSC(=O)Oc1c(C(=O)c2ccc(S(C)(=O)=O)c(CCOC)c2C)cnn1C [compound 75]
Growth inhibition rate (%) Rice [1]: 98% | Growth inhibition rate (%) Greenfoxtail [2]: 100% | Growth inhibition rate (%) Prickly sida [3]: 100% | Growth inhibition rate (%) Corn [4]: 10% | Growth inhibition rate (%) Crabgrass [5]: 100% | Growth inhibition rate (%) Soybean [6]: 98% | Growth inhibition rate (%) Corn [7]: 40% | Growth inhibition rate (%) Crabgrass [8]: 100% | Growth inhibition rate (%) Wheat [9]: 0% | Growth inhibition rate (%) redroot pigweed [10]: 100% | Growth inhibition rate (%) Velvetleaf [11]: 80% | Growth inhibition rate (%) Velvetleaf [12]: 100% | Growth inhibition rate (%) redroot pigweed [13]: 100% | Growth inhibition rate (%) Barnyardgrass [14]: 98%

CCOCc1c(S(C)(=O)=O)ccc(C(=O)c2cnn(C)c2OC(=O)SCC)c1C [compound 73]
Growth inhibition rate (%) Rice [1]: 95% | Growth inhibition rate (%) Greenfoxtail [2]: 100% | Growth inhibition rate (%) Prickly sida [3]: 70% | Growth inhibition rate (%) Corn [4]: 0% | Growth inhibition rate (%) Crabgrass [5]: 100% | Growth inhibition rate (%) Soybean [6]: 98% | Growth inhibition rate (%) Corn [7]: 30% | Growth inhibition rate (%) Crabgrass [8]: 100% | Growth inhibition rate (%) Wheat [9]: 0% | Growth inhibition rate (%) redroot pigweed [10]: 100% | Growth inhibition rate (%) Velvetleaf [11]: 100% | Growth inhibition rate (%) Velvetleaf [12]: 98% | Growth inhibition rate (%) redroot pigweed [13]: 100% | Growth inhibition rate (%) Barnyardgrass [14]: 100%

CCSC(=O)Oc1c(C(=O)c2ccc(S(C)(=O)=O)c(COC)c2Cl)cnn1C [compound 42]
Growth inhibition rate (%) Rice [1]: 90% | Growth inhibition rate (%) Greenfoxtail [2]: 95% | Growth inhibition rate (%) Prickly sida [3]: 90% | Growth inhibition rate (%) Corn [4]: 0% | Growth inhibition rate (%) Crabgrass [5]: 98% | Growth inhibition rate (%) Soybean [6]: 95% | Growth inhibition rate (%) Corn [7]: 0% | Growth inhibition rate (%) Crabgrass [8]: 100% | Growth inhibition rate (%) Wheat [9]: 0% | Growth inhibition rate (%) redroot pigweed [10]: 100% | Growth inhibition rate (%) Velvetleaf [11]: 70% | Growth inhibition rate (%) Velvetleaf [12]: 95% | Growth inhibition rate (%) redroot pigweed [13]: 100% | Growth inhibition rate (%) Barnyardgrass [14]: 100%
